Measurements published in ChEMBL document CHEMBL1124815, “Novel piperidine derivatives. Synthesis and anti-acetylcholinesterase activity of 1-benzyl-4-[2-(N-benzoylamino)ethyl]piperidine derivatives” (J Med Chem, 1990).

Legend:
Acetylcholinesterase = molecular target: T1, Acetylcholinesterase (Mus musculus, UniProt P21836); test: Inhibitory activity against mouse brain Acetylcholinesterase
T1 sequence (P21836 whole entry): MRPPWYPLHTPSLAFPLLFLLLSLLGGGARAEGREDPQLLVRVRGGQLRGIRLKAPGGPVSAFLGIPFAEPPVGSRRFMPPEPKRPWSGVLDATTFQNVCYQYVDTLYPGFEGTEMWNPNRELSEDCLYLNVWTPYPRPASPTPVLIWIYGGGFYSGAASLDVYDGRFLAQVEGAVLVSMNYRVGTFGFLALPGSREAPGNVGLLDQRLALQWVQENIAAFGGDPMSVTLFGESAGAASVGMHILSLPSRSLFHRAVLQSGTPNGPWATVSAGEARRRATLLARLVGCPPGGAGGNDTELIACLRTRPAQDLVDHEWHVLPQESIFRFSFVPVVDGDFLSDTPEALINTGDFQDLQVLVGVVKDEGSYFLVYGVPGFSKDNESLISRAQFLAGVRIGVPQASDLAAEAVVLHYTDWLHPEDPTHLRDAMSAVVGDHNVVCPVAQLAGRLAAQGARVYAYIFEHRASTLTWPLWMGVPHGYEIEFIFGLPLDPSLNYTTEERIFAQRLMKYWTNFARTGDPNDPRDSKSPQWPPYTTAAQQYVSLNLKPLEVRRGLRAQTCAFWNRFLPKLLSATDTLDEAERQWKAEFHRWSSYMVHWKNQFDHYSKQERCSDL

[1] = molecular target: T2, Acetylcholinesterase (Mus musculus) (UniProt P21836); test: Reversibility of Acetylcholinesterase enzyme inhibition by compound (0.27 uM) after dialysis
T2 sequence (whole entry): T1 sequence (P21836 whole entry)

[2] = molecular target: T2, Acetylcholinesterase (Mus musculus); test: Reversibility of Acetylcholinesterase enzyme inhibition by compound (0.27 uM) before dialysis
[3] = molecular target: T2, Acetylcholinesterase (Mus musculus); test: Reversibility of Acetylcholinesterase enzyme inhibition by compound (0.91 uM) after dialysis
[4] = molecular target: T2, Acetylcholinesterase (Mus musculus); test: Reversibility of Acetylcholinesterase enzyme inhibition by compound (0.91 uM) before dialysis
[5] = molecular target: T2, Acetylcholinesterase (Mus musculus); test: Reversibility of Acetylcholinesterase enzyme inhibition by compound (91 uM) after dialysis
[6] = molecular target: T2, Acetylcholinesterase (Mus musculus); test: Reversibility of Acetylcholinesterase enzyme inhibition by compound (91 uM) before dialysis
Butyrylcholinesterase = Butyrylcholinesterase (Rattus norvegicus, UniProt Q9JKC1); test: Inhibitory activity against rat butyrylcholinesterase enzyme (BuChE)
Chain of Butyrylcholinesterase (Q9JKC1 whole entry): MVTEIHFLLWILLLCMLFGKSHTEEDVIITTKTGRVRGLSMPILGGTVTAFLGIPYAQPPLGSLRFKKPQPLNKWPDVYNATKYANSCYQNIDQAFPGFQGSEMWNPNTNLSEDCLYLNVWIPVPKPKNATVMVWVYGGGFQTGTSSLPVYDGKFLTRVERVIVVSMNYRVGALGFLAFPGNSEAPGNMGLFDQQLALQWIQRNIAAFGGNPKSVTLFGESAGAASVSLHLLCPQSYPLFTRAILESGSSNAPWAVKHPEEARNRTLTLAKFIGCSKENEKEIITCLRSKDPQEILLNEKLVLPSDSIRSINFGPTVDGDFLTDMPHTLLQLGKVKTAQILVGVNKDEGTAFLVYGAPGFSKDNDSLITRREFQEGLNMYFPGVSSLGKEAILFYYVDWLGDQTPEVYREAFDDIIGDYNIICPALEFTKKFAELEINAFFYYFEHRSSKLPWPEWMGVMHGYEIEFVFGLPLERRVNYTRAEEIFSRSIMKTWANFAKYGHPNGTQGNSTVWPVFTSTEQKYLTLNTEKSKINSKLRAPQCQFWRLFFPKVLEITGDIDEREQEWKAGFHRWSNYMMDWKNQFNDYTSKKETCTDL

Compound: CC(=O)c1ccc(C(=O)NCCC2CCN(Cc3ccccc3)CC2)cc1
- IC50 (Acetylcholinesterase): 0.051 µM

Compound: O=C(CCCC1CCN(Cc2ccccc2)CC1)c1ccccc1
- IC50 (Acetylcholinesterase): 0.53 µM

Compound: O=C(NCCC1CCN(Cc2ccccc2)CC1)c1ccc(Cl)cc1
- IC50 (Acetylcholinesterase): 0.18 µM

Compound: CCN(CCC1CCN(Cc2ccccc2)CC1)C(=O)c1ccc(S(=O)(=O)Cc2ccccc2)cc1
- IC50 (Acetylcholinesterase): 0.0003 µM

Compound: O=C(NCCC1CCN(Cc2ccccc2)CC1)c1ccccn1
- IC50 (Acetylcholinesterase): 0.8 µM

Compound: Cc1cccc(C(=O)NCCC2CCN(Cc3ccccc3)CC2)c1
- IC50 (Acetylcholinesterase): 0.47 µM

Compound: O=C(NCCC1CCN(Cc2ccccc2)CC1)C1CCCCC1
- IC50 (Acetylcholinesterase): 1.6 µM

Compound: O=C(NCCC1CCN(Cc2ccccc2)CC1)c1cccnc1
- IC50 (Acetylcholinesterase): 0.069 µM

Compound: O=C(NCCC1CCN(Cc2ccccc2)CC1)c1cc[n+]([O-])cc1
- IC50 (Acetylcholinesterase): 0.155 µM

Compound: CCN(CCC1CCN(Cc2ccccc2)CC1)C(=O)c1ccccc1
- IC50 (Acetylcholinesterase): 0.13 µM

Compound: COc1ccc(C(=O)NCCC2CCN(Cc3ccccc3)CC2)cc1
- IC50 (Acetylcholinesterase): 0.088 µM

Compound: O=C(NCCC1CCN(Cc2ccccc2)CC1)c1ccccc1[N+](=O)[O-]
- IC50 (Acetylcholinesterase): 0.88 µM

Compound: Cc1ccc(C(=O)NCCC2CCN(Cc3ccccc3)CC2)cc1
- IC50 (Acetylcholinesterase): 0.18 µM

Compound: CN(CCC1CCN(Cc2ccccc2)CC1)C(=O)c1ccc(S(=O)(=O)Cc2ccccc2)cc1
- Reversibility [1]: 17.7
- Reversibility [2]: 9.1
- Reversibility [3]: 17.8
- Reversibility [4]: 5.42
- Reversibility [5]: 16.5
- Reversibility [6]: 2.59
- IC50 (Butyrylcholinesterase): 10.1 µM

Compound: Cc1ccccc1C(=O)NCCC1CCN(Cc2ccccc2)CC1
- IC50 (Acetylcholinesterase): 1 µM

Compound: c1ccc(CNCCC2CCN(Cc3ccccc3)CC2)cc1
- IC50 (Acetylcholinesterase): 46 µM

Compound: O=C(NCCC1CCN(Cc2ccccc2)CC1)c1ccc(S(=O)(=O)Cc2ccccc2)cc1
- IC50 (Acetylcholinesterase): 0.029 µM

Compound: O=C(c1ccccc1)N(CCC1CCN(Cc2ccccc2)CC1)Cc1ccccc1
- IC50 (Acetylcholinesterase): 0.94 µM

Compound: O=C(NCCC1CCN(Cc2ccccc2)CC1)c1cccc([N+](=O)[O-])c1
- IC50 (Acetylcholinesterase): 0.23 µM

Compound: O=C(c1ccc(S(=O)(=O)Cc2ccccc2)cc1)N(CCC1CCN(Cc2ccccc2)CC1)c1ccccc1
- IC50 (Acetylcholinesterase): 0.0006 µM

Compound: O=C(NCCC1CCN(Cc2ccccc2)CC1)c1ccncc1
- IC50 (Acetylcholinesterase): 0.039 µM

Compound: O=Cc1ccc(C(=O)NCCC2CCN(Cc3ccccc3)CC2)cc1
- IC50 (Acetylcholinesterase): 0.12 µM

Compound: O=C(c1ccccc1)N(CCC1CCN(Cc2ccccc2)CC1)c1ccccc1
- IC50 (Acetylcholinesterase): 0.035 µM

Compound: O=C(NCCC1CCN(Cc2ccccc2)CC1)c1ccc(F)cc1
- IC50 (Acetylcholinesterase): 0.085 µM
